Drawing on PubChem BioAssay AID1421 (Emory University Molecular Libraries Screening Center, 2008), this text covers outcome and PGE2 EC50 with compound for 87 molecules.

The structures appear in SMILES notation. The source made the active and inactive calls. No rule for the calls is given here.

The target in the experiment is Prostaglandin E2 receptor EP2 subtype (Homo sapiens) (UniProt P43116). In words: compounds shifting PGE2 potency at EP2 – cell-based, human EP2, PGE2 EC50 shift, dose response (AID 1421). To be noted: EP2-expressing cells, PGE2 EC50 shift by compound; for PGE2 EC50 with compound: measured here: PGE2 EC50 at 6.7 uM compound.
Prostaglandin E2 receptor EP2 subtype (Homo sapiens), sequence (P43116 whole entry, looked up): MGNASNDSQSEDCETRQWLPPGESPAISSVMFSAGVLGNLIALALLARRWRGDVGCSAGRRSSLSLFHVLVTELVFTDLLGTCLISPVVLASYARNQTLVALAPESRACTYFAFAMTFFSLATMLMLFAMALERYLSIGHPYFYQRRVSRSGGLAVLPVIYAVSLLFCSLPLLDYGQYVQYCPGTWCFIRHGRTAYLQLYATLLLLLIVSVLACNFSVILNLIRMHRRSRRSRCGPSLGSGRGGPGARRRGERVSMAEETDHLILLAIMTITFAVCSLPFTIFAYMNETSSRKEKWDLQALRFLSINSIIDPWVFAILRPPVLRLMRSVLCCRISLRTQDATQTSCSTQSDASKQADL

With `CCOCC(=O)Nc1sc2c(c1C(=O)OCC)CCCC2`, the outcome was active and the PGE2 EC50 with compound was found to be 1.18 nM.
`CCc1cc(-c2[nH]ncc2-c2ccc3c(c2)OCO3)c(O)cc1O`: the PGE2 EC50 with compound came out at 1.31 nM.
Turning to `NC(=O)CSc1nc(-c2ccccc2)c(-c2ccccc2)o1`, the result was active and the PGE2 EC50 with compound amounted to 0.94 nM.
With `O=C(Nc1ccccc1N1CCCCC1)c1cccc(F)c1`, the PGE2 EC50 with compound came out at 0.95 nM.
The same measure, in the same setting: for `COc1ccccc1/C=C(/C(=O)OCC(=O)Nc1ccccc1C(C)C)c1ccccc1` the value was 1.1 nM.
`CCc1c(C)nc2ccc(Br)cc2c1SCCC#N`: the PGE2 EC50 with compound came to 2.61 nM.
For `O=C(c1ccc(Cl)cc1)c1oc2ccccc2c1CS(=O)c1ccc(Cl)cc1` (stereo not given), the PGE2 EC50 with compound was found to be 0.88 nM.
In the case of `COCCn1c(SCC(=O)NCCc2ccccc2)nnc1-c1ccco1`, the PGE2 EC50 with compound is 1.4 nM.
`CCCCOc1ccccc1Cn1c(=O)oc2ccc(C)cc21`: the PGE2 EC50 with compound turned out to be 0.92 nM.
Consider `Cc1ccc(C)n1-c1ccc(N(C)C)cc1`, for which the PGE2 EC50 with compound is 0.75 nM.
Turning to `Nc1[nH]n2c(=O)c3c(nc2c1N=Nc1ccccc1)CCCC3`, the PGE2 EC50 with compound was determined as 2.09 nM.
Consider `C[C@@H]1CC[C@H]2C(C)(C)C3CC12CC[C@@]3(C)O` (stereo not given in full), for which the PGE2 EC50 with compound came to 0.32 nM.
For `Cc1ccc(NCc2ccccc2OCc2ccccc2F)cc1`, the result was active and the PGE2 EC50 with compound is 0.86 nM.
As for `CCOP(=O)(OCC)c1nc(-c2cccc3ccccc23)oc1NCc1ccccc1`, the PGE2 EC50 with compound came out at 2.48 nM.
As for `N#CC1=C(N)S[C@H](C(=O)C23CC4CC(CC(C4)C2)C3)[C@H]1c1ccncc1`, the outcome was active and the PGE2 EC50 with compound stood at 0.96 nM.
For the molecule `CCCSc1ncnc2sc(C)c(C)c12`, the outcome was active and the PGE2 EC50 with compound worked out at 0.89 nM.
In the same order, the values of `O=C(Nc1ccccc1Cl)N1CCSc2ccccc21` are “active” and 1.55 nM.
As for `CCCOc1ccccc1Cn1c(=O)oc2ccc(C)cc21`, the PGE2 EC50 with compound was found to be 2.64 nM.
Take `Brc1ccc(Cn2c(-c3ccc(Br)o3)nc3ccccc32)o1`: the PGE2 EC50 with compound was 2.59 nM.
Regarding `O=C(O)c1cc2c(s1)-c1ccccc1OC2`, the PGE2 EC50 with compound came out at 0.91 nM.
With `CCOCC(=O)Nc1cc(C(F)(F)F)ccc1Oc1cccc(Br)c1`, the PGE2 EC50 with compound was determined as 0.49 nM.
Same read-out and setting: for `CCOC(=O)CCN(Cc1sccc1C)S(=O)(=O)c1ccc(F)cc1` the value was 1.15 nM; for `CC(=O)c1ccc(-n2c(C)ccc2-c2ccccc2)cc1`, 2.52 nM.
Consider `Cc1nnc(SCC(=O)N2c3ccccc3C(C)(c3ccccc3)CC2(C)C)s1` (stereo not given), for which the PGE2 EC50 with compound is 0.85 nM.
With `Clc1ccccc1C1NCc2ccccc2-n2cccc21` (stereo not given), the PGE2 EC50 with compound turned out to be 0.34 nM.
As to `Cc1ccc(S(=O)(=O)n2c3ccc(Cl)cc3c3nc(C)sc32)cc1`, the PGE2 EC50 with compound came out at 0.44 nM.
As to `COC(=O)c1c(NC(=O)CSc2nnc(-c3cccnc3)n2Cc2ccco2)sc(C)c1C`, the PGE2 EC50 with compound came to 0.79 nM.
Take `Cc1cc(C#N)c(SCC(N)=O)nc1-c1ccc(F)cc1`: the outcome was active and the PGE2 EC50 with compound came out at 1.4 nM.
For the molecule `Cc1ccc(S(=O)(=O)n2c3ccc(F)cc3c3nc(C)sc32)cc1`, the PGE2 EC50 with compound came out at 0.84 nM.
Regarding `Cn1c(=O)c(NCCc2ccccc2)c2c3c(cccc31)C(=O)c1ccccc1-2`, the PGE2 EC50 with compound came to 0.31 nM.
Take `O=C(Nc1cccc(Cl)c1N1CCCC1)c1ccc(Br)o1`: the PGE2 EC50 with compound worked out at 1.61 nM.
As for `CCOC(=O)CC(=O)CSc1ncnc2c1oc1ccccc12`, the PGE2 EC50 with compound was 2.64 nM.
As for `COc1ccc(-c2nc(NC(C)=O)sc2-c2ccc(OC)cc2)cc1`, the PGE2 EC50 with compound worked out at 0.95 nM.
The same measure, in the same setting: then `CCOC(=O)C(C)Sc1ncc(OC)c(Sc2ccc(Cl)cc2)n1` (stereo not given), with 0.67 nM.
In the case of `CN(CC(=O)Nc1ccccc1-c1ccccc1)Cc1ccccc1Cl`, the PGE2 EC50 with compound was found to be 0.95 nM.
Turning to `C#CCn1c(S(=O)(=O)Cc2ccc(F)cc2)nc(-c2ccccc2)c1-c1ccccc1`, the PGE2 EC50 with compound was 0.95 nM.
Consider `O=c1cc(N2CCCCC2)c(-c2ccccc2)nn1Cc1cccc(Cl)c1`, for which the PGE2 EC50 with compound amounted to 0.32 nM.
On the same count and under the same terms, for `O=C(O)CCN1C(=O)/C(=C/c2cn(-c3ccccc3)nc2-c2cccs2)SC1=S` the value was 0.33 nM; for `CCCCCn1c(CN2CCN(c3cc(Cl)ccc3C)CC2)nc2c1c(=O)[nH]c(=O)n2C`, 1.25 nM.
Same read-out and setting: for `CCCCOC(=O)Sc1nc2ccccc2o1` the value was 2.48 nM.
Turning to `CC(C)C1(C)N=C(c2ncccc2C(=O)O)NC1=O` (stereo not given), the PGE2 EC50 with compound was determined as 2.52 nM.
`CCOC(=O)c1c(NC(=O)CSc2nnnn2CC)sc(C)c1C`: the PGE2 EC50 with compound came to 0.81 nM.
On the same count and under the same terms, for `CN(C)c1nc(N2CCOCC2)nc(N(c2ccccc2)c2ccccc2)n1` the value was 0.61 nM.
`Cc1cc(C)n(-c2nc3ccccc3nc2Nc2ccc3[nH]c(=O)[nH]c3c2)n1`: the outcome was active and the PGE2 EC50 with compound is 0.83 nM.
Consider `Fc1ccc(Oc2nc(-c3ccccc3)nnc2C(F)(F)F)cc1`, for which the result was active and the PGE2 EC50 with compound amounted to 0.66 nM.
For `CC1(C)Cc2nc3nc(SCC(=O)Nc4ccccc4)nc(N)c3cc2CO1`, the PGE2 EC50 with compound is 1.4 nM.
Take `CCn1c(=NC(=O)c2ccc(S(=O)(=O)N(C)C)cc2)sc2cccc(OC)c21`: the PGE2 EC50 with compound worked out at 1.17 nM.
On to `Cn1nc(-c2ccccc2)c(-c2nc(-c3cccc(C(F)(F)F)c3)no2)c1Cl`, for which the outcome was active and the PGE2 EC50 with compound was found to be 0.81 nM.
As for `CC1CC(C)CN(CC(=O)NC(c2ccccc2)c2ccccc2)C1` (stereo not given), the PGE2 EC50 with compound was found to be 2.64 nM.
`O=C(OCC(=O)N1N=C(c2ccc(Cl)cc2)CC1c1ccco1)c1ccco1` (stereo not given): the PGE2 EC50 with compound stood at 1.63 nM.
For `O=C(NNc1ccc([N+](=O)[O-])cc1[N+](=O)[O-])C1C2CCCCC21` (stereo not given), the PGE2 EC50 with compound was 0.66 nM.
Take `Cc1ccc(C(=O)c2cnc3ccccc3c2-c2ccccc2)cc1`: the PGE2 EC50 with compound turned out to be 0.64 nM.
On the same count and under the same terms, then `Cc1ccc(-c2cc3nn(-c4ccccc4)c(N)c3c(=O)o2)cc1`, with 1.87 nM; and `c1ccc(C2Nc3ccccc3Oc3ccccc32)cc1` (stereo not given), with 0.85 nM; and `CC(=O)NC(c1ccccc1)c1cccnc1` (stereo not given), with 1.03 nM.
On to `CCOc1cc(S(=O)(=O)NCCc2cccc(C)c2)c(OCC)cc1-n1cnnn1`, for which the PGE2 EC50 with compound was determined as 1.21 nM.
With `C/C(CCc1oc2ccc(Cl)cc2c1-c1ccc(C)o1)=N\O`, the outcome was active and the PGE2 EC50 with compound was found to be 0.81 nM.
In the case of `Cc1ccc(NC2=C(C(=O)c3ccccc3)N(C)S(=O)(=O)c3ccccc32)cc1`, the result was active and the PGE2 EC50 with compound came out at 1.28 nM.
As for `O=c1c2ccccc2nc(/C=C/c2ccccc2)n1CCc1ccccc1`, the PGE2 EC50 with compound came to 0.92 nM.
As for `CCOC(=O)c1c(N)sc2c1CCC(CC)C2` (stereo not given), the PGE2 EC50 with compound was found to be 1.5 nM.
As for `Cc1cccc(OCc2n[nH]c(=S)n2Cc2ccccc2)c1`, the PGE2 EC50 with compound was 1.31 nM.
In the case of `COc1ccc(OC(=O)c2cccc([N+](=O)[O-])c2)c(C(=O)/C=C/c2cccs2)c1`, the PGE2 EC50 with compound is 2.52 nM.
The same measure, in the same setting: then `Cn1c(=O)[nH]c(=O)c2c1nc(N1CCCCCC1)n2Cc1cccc2ccccc12`, with 2.64 nM; and `Cc1ccc(OCc2n[nH]c(=S)n2Cc2ccccc2)cc1`, with 1.17 nM; and `CC1=CC(C)(C)N2C(=O)C3(SCC(=O)N3c3ccc(F)cc3)c3cc(C)cc1c32` (stereo not given), with 1.12 nM.
For `CC(=O)N(Cc1cccs1)Cc1cc2ccc(C)c(C)c2nc1Cl`, the result was active and the PGE2 EC50 with compound stood at 1.01 nM.
On to `FC(F)(F)c1cccc(/C=N/NC(=S)NC2CCCCC2)c1`, for which the PGE2 EC50 with compound was 0.42 nM.
Regarding `Cc1ccc(C(=O)OCC(=O)Nc2ccccc2Sc2ccccc2)cc1C`, the PGE2 EC50 with compound was found to be 0.85 nM.
Consider `O=C(/C(=C/O)N=Nc1ccccc1)c1ccc(Cl)cc1`, for which the PGE2 EC50 with compound came out at 1.12 nM.
The same measure, in the same setting: for `CCn1c2ccc(F)cc2c2nc3ccccc3nc21` the value was 0.86 nM.
Turning to `CCCc1cc(-c2n[nH]c(=S)n2C(C)c2ccccc2)cs1` (stereo not given), the outcome was active and the PGE2 EC50 with compound is 1.2 nM.
The like results for `CC1CCN(c2ccccc2NC(=O)c2ccc(C#N)cc2F)CC1` were, in that order, “active” and 0.93 nM.
For `Cc1occc1-c1nnc(SCC(=O)Nc2ccccc2N2CCCCC2)n1C`, the PGE2 EC50 with compound worked out at 2.71 nM.
Turning to `Clc1ccc(COn2c(-c3ccccc3)nc3ccccc32)cc1`, the result was active and the PGE2 EC50 with compound was found to be 2.65 nM.
Take `COC(=O)c1cc(-c2ccc3c(c2)OCO3)nc2ccccc12`: the PGE2 EC50 with compound was 0.7 nM.
Consider `CCN(c1cccc(C)c1)S(=O)(=O)c1ccc2c3c(cccc13)C(=O)N2`, for which the PGE2 EC50 with compound is 0.53 nM.
Turning to `CC(NC(c1ccccc1)c1ccccc1)C(=O)N1CCCc2ccccc21` (stereo not given), the PGE2 EC50 with compound was 1.25 nM.
As to `CCOC(=O)c1c(NC(=O)c2ccoc2C)sc(C(=O)N(C)C)c1C`, the PGE2 EC50 with compound was determined as 0.8 nM.
For the molecule `Cc1nn2c(N3CCN(C(=O)c4ccco4)CC3)cc(C(C)(C)C)nc2c1-c1ccccc1`, the PGE2 EC50 with compound stood at 1.15 nM.
Turning to `CC(C)NC(=O)NC(=O)CSc1nnc(COc2ccccc2F)n1C(C)C1CC2CCC1C2` (stereo not given), the outcome was active and the PGE2 EC50 with compound was 1.06 nM.
Consider `CCOc1ccccc1C(=O)Nc1ccccc1-c1ccccc1`, for which the PGE2 EC50 with compound came to 1.34 nM.
Regarding `Cc1ccc(S(=O)(=O)c2c(C)cc(C)nc2N2CCCCC2)cc1`, the PGE2 EC50 with compound was 1.31 nM.
Take `O=C(/C=C/Nc1ccccc1Oc1ccccc1)c1ccco1`: the PGE2 EC50 with compound stood at 2.67 nM.
Turning to `Cc1ccn2c(Nc3ccccc3C)c(-c3ccccn3)nc2c1`, the PGE2 EC50 with compound worked out at 0.73 nM.
Take `O=c1c2ccccc2c(-c2ccccc2)nn1Cc1ccccc1`: the PGE2 EC50 with compound is 2.8 nM.
As to `CCC(=O)N(CCC(Cc1ccccc1)c1ccco1)Cc1ccco1` (stereo not given), the outcome was active and the PGE2 EC50 with compound was 0.86 nM.
On to `Cc1ccccc1-n1c(SCC(=O)N2CCCC2)nnc1-c1ccccn1`, for which the PGE2 EC50 with compound came out at 1.28 nM.
